Results published in ChEMBL document CHEMBL4422610, “HDAC as onco target: Reviewing the synthetic approaches with SAR study of their inhibitors” (Eur J Med Chem, 2018).

Experiments:
[1] = biological target: Histone deacetylase 2 (Homo sapiens, UniProt Q92769); experiment: Inhibition of human HDAC2 using fluorogenic HDAC substrate
[2] = biological target: T1, Polyamine deacetylase HDAC10 (Homo sapiens, UniProt Q969S8); experiment: Inhibition of human HDAC10 using fluorogenic HDAC substrate
T1 sequence (Q969S8 whole entry): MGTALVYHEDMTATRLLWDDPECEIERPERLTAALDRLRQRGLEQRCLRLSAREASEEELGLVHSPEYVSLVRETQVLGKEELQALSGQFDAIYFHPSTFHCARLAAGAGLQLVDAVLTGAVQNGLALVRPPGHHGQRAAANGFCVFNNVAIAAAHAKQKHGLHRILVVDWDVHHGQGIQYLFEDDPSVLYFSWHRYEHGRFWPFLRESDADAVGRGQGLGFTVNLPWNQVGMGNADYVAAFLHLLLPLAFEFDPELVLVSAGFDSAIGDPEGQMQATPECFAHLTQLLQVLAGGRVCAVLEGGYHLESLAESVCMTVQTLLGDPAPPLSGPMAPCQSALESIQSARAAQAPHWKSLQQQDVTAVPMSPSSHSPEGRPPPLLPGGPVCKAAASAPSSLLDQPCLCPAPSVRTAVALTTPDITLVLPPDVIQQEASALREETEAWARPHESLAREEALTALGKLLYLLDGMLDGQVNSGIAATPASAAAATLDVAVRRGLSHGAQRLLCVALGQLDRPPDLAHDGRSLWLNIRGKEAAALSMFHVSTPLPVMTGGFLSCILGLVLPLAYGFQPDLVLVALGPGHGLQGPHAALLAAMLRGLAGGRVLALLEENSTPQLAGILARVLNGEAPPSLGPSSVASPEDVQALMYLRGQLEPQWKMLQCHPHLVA

[3] = biological target: Histone deacetylase 5 (Homo sapiens, UniProt Q9UQL6); experiment: Inhibition of human HDAC5 using fluorogenic HDAC substrate
Histone deacetylase 5, sequence (Q9UQL6 whole entry): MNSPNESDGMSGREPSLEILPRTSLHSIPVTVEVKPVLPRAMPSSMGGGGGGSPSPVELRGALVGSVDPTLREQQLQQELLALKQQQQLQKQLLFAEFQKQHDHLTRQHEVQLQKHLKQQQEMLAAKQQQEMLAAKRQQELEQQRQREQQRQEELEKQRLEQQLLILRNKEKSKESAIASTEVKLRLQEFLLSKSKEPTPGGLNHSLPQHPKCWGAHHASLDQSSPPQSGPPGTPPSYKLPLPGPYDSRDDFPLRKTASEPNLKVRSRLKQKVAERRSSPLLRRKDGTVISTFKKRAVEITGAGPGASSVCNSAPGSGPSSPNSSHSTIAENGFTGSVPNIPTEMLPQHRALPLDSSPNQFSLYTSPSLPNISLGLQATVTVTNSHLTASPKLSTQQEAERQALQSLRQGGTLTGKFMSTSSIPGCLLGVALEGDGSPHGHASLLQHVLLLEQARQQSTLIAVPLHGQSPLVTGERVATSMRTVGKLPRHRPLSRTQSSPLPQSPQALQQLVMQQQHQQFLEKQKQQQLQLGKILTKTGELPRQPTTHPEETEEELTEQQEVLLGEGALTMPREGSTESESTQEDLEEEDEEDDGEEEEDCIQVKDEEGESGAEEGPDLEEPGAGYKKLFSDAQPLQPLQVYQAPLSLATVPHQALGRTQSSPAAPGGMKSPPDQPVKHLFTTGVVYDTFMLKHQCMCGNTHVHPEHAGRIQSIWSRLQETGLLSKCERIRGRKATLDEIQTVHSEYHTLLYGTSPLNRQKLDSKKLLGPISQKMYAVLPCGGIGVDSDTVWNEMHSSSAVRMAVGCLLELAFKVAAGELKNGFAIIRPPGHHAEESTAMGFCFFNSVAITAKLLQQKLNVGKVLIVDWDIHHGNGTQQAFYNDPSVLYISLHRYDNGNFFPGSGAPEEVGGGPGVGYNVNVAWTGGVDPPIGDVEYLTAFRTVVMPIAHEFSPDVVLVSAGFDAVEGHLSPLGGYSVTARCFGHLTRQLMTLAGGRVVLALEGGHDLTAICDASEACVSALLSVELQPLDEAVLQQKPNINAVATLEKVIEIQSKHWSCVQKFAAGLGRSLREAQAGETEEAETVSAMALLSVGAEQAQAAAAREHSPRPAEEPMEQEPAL

[4] = biological target: T2, Histone deacetylase 7 (Homo sapiens, UniProt Q8WUI4); experiment: Inhibition of human HDAC7 using fluorogenic HDAC substrate
T2 sequence (Q8WUI4 whole entry): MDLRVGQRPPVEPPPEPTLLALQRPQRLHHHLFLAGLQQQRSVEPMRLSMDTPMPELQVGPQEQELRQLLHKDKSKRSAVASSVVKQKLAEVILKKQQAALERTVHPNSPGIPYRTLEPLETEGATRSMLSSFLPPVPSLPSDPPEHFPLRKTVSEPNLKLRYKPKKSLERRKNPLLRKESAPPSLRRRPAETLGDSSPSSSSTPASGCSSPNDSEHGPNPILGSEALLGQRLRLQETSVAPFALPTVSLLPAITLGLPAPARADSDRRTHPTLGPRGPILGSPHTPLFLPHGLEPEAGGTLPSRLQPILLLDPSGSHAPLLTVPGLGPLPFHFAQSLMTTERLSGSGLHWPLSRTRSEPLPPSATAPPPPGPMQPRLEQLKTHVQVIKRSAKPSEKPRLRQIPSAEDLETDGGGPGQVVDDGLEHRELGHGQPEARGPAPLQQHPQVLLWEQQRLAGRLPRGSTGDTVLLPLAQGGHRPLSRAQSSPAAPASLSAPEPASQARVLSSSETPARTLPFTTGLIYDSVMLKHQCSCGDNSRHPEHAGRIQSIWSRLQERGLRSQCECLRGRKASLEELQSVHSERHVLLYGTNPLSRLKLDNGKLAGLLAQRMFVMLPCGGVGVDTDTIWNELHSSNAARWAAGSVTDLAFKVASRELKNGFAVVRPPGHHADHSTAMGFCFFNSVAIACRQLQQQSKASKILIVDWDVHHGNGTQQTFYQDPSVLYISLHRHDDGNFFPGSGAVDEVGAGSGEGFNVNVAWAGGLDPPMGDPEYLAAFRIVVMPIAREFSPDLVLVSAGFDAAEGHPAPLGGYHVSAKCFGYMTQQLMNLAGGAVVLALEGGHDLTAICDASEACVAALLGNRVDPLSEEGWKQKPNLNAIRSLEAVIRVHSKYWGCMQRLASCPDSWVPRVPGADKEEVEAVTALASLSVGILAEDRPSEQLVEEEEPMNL

[5] = biological target: T3, Histone deacetylase 11 (Homo sapiens, UniProt Q96DB2); experiment: Inhibition of human HDAC11 using fluorogenic HDAC substrate
T3 sequence (Q96DB2 whole entry): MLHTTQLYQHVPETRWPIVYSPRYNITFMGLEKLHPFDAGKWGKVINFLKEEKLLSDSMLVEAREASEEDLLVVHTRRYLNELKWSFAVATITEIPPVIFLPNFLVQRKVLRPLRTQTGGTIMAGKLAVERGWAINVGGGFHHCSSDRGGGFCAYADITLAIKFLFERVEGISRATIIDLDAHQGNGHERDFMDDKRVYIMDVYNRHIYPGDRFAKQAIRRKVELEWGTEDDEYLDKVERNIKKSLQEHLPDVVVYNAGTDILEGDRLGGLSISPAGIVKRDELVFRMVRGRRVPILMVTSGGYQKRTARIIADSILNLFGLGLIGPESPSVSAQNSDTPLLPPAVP

Histone deacetylase 2, sequence (Q92769 whole entry): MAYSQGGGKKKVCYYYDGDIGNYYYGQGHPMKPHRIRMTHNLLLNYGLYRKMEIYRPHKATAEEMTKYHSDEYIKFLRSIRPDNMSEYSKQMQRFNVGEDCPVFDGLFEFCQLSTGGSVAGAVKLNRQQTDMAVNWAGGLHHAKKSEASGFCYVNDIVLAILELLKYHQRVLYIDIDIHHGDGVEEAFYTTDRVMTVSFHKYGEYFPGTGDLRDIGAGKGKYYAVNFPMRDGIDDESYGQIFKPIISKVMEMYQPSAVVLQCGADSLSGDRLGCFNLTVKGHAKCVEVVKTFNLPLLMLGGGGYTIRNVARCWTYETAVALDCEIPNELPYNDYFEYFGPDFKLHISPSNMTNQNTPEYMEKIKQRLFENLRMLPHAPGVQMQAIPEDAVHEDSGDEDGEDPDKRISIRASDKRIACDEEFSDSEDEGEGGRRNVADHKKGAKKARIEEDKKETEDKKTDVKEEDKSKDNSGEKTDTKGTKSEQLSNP

IC50 [1]: 26 µM
IC50 [2]: 14 µM
IC50 [3]: 12 µM
IC50 [4]: > 30 µM
IC50 [5]: 0.54 µM
Structure (SMILES): O=C(NO)c1ccc(CN2c3ccccc3CC[C@@H]3CCCC[C@H]32)cc1
